Key:
Assay type in all cases: in vivo
[1] = test system: tobacco budworm (Heliothis virescens); test: whole plant or invertebrate; details: 120 h, egg and larval mortality after 5 days, read-out: mortality in comparison with untreated controls
Description: Tobacco Budworm (Heliothis virescens)
(§1) For evaluating control of tobacco budworm (Heliothis virescens) the test unit consisted of 96-well-microtiter plates containing an insect diet and 15-25 H. virescens eggs. The compounds were formulated using a solution containing 75% v/v water and 25% v/v DMSO. Different concentrations of formulated compounds were sprayed onto the insect diet at 10 μl, using a custom built micro atomizer, at two replications. After application, microtiter plates were incubated at about 28±1° C. and about 80±5% relative humidity for 5 days. Egg and larval mortality was then visually assessed.

[2] = test system: yellow fever mosquito (Aedes aegypti); test: whole plant or invertebrate; details: 48 h, larval mortality after 2 days, read-out: mortality in comparison with untreated controls
Description: Yellow Fever Mosquito (Aedes aegypti)
For evaluating control of yellow fever mosquito (Aedes aegypti) the test unit consisted of 96-well-microtiter plates containing 200 μl of tap water per well and 5-15 freshly hatched A. aegypti larvae. The active compounds were formulated using a solution containing 75% (v/v) water and 25% (v/v) DMSO. Different concentrations of formulated compounds or mixtures were sprayed onto the insect diet at 2.5 μl, using a custom built micro atomizer, at two replications. After application, microtiter plates were incubated at 28+1° C., 80+5% RH for 2 days. Larval mortality was then visually assessed.

[3] = test system: boll weevil (Anthonomus grandis); test: Boll weevil (Anthonomus grandis) egg and larval mortality, insect diet microtiter plate; details: 120 h, egg and larval mortality after 5 days, read-out: mortality in comparison with untreated controls
Description: Boll Weevil (Anthonomus grandis)
as §1, with “boll weevil (Anthonomus grandis)” for “tobacco budworm (Heliothis virescens)”, “5-10 A. grandis” for “15-25 H. virescens”, “5” for “10”, “25±1°” for “28±1°”, “75±5%” for “80±5%”

[4] = test system: Green Peach Aphid (Myzus persicae); test: whole plant or invertebrate; details: 120 h, aphid mortality after 5 days, read-out: mortality in comparison with untreated controls
Description: Green Peach Aphid (Myzus persicae)
The 10,000 ppm solution was serially diluted in 100% cyclohexanone to make interim solutions. These served as stock solutions for which final dilutions were made by the Tecan in 50% acetone:50% water (v/v) into 10 or 20 ml glass vials. A nonionic surfactant (Kinetic®) was included in the solution at a volume of 0.01% (v/v). The vials were then inserted into an automated electrostatic sprayer equipped with an atomizing nozzle for application to plants/insects. Bell pepper plants at the first true-leaf stage were infested prior to treatment by placing heavily infested leaves from the main colony on top of the treatment plants. Aphids were allowed to transfer overnight to accomplish an infestation of 30-50 aphids per plant and the host leaves were removed. The infested plants were then sprayed by an automated electrostatic plant sprayer equipped with an atomizing spray nozzle. The plants were dried in the sprayer fume hood, removed, and then maintained in a growth room under fluorescent lighting in a 14:10 light:dark photoperiod at about 25° C. and about 20-40% relative humidity. Aphid mortality on the treated plants, relative to mortality on untreated control plants, was determined after 5 days.

[5] = test system: Red Spider Mite (Tetranychus kanzawai); test: Red spider mite (Tetranychus kanzawai) mortality on sprayed cowpea beans; details: 72 hours after treatment, read-out: mortality in comparison with untreated controls
Description: Red Spider Mite (Tetranychus kanzawai)
The active compound of formula ( ))s dissolved at the desired concentration in a mixture of 1:1 (vol:vol) distilled water:acetone. Add surfactant (Kinetic) is added at a rate of 0.01% (vol/vol).The test solution is prepared at the day of use. Potted cowpea beans of 4-5 days of age are cleaned with tap water and sprayed with 1-2 ml of the test solution using air driven DeVilbiss® hand atomizer at 20-30 psi (≈1.38 to 2.07 bar). The treated plants are allowed to air dry and afterwards inoculated with 30 or more mites by clipping a cassava leaf section from rearing population. Treated plants are placed inside a holding room at about 25-26° C. and about 65-70% relative humidity. Estimate percent mortality is assessed 72 hours after treatment.

CCS(=O)(=O)c1cc(Br)cnc1-c1nc2cc(C(F)(F)F)n3ncnc3c2n1C [I.2, 8-(5-bromo-3-(ethylsulfonyl)pyridin-2-yl)-9-methyl-5-(trifluoromethyl)-9H-imidazo[4,5-c][1,2,4]triazolo[1,5-a]pyridine]
> 70%: mortality at 10 ppm ([1]; 10 ppm) | mortality at 10 ppm ([2]; 10 ppm) | mortality at 30 ppm ([3]; 30 ppm) | mortality at 10 ppm ([4]; 10 ppm) | mortality at 10 ppm ([5]; 10 ppm)

CCS(=O)(=O)c1cc(Br)ccc1-c1nc2cc(C(F)(F)F)n3ncnc3c2n1C [I.8, 11-(4-bromo-2-ethylsulfonyl-phenyl)-12-methyl-7-(trifluoromethyl)-3,5,6,10,12-pentazatricyclo[7.3.0.02,6]dodeca-1(9),2,4,7,10-pentaene]
> 70%: mortality at 800 ppm ([1]; 800 ppm) | mortality at 800 ppm ([2]; 800 ppm) | mortality at 800 ppm [3] | mortality at 800 ppm ([4]; 800 ppm) | mortality at 800 ppm [5]

CCS(=O)(=O)c1cc(N=S(C)(C)=O)cnc1-c1cn2c(cc(C(F)(F)F)n3ccnc32)n1 [I.24, [5-ethylsulfonyl-6-[7-(trifluoromethyl)-1,3,6,10-tetrazatricyclo[7.3.0.02,6]dodeca-2,4,7,9,11-pentaen-11-yl]-3-pyridyl]imino-dimethyl-oxo-λ6-sulfane]
> 70%: mortality at 800 ppm [3] | mortality at 800 ppm [5]

From patent US20240092782A1, “TRICYCLIC PESTICIDAL COMPOUNDS” (BASF SE, priority 2021, published 2024)
